BindingDB's records for PubMed 35073486 (The University of Queensland, 2022)

Experiments:
[1] = Inhibition of P-gp mediated doxorubicin resistance in human SW620/AD300 cells overexpressing P-gp in presence of doxorubicin measured after 52 hrs by MTT assay
[2] = Inhibition of P-gp mediated doxorubicin resistance in human SW620/AD300 cells overexpressing P-gp measured after 48 hrs by MTT assay

Row | IC50 [1] | IC50 [2] | SMILES
1 | 1.53 µM | – | C[C@H]1O[C@H](CC(=O)O)Cc2c1c(O)c1c3c(c4n(c23)[C@@H]([C@@H](C)O)CC4)C=CC1=O
2 | 1.01 µM | – | C[C@@H]1OC(CC(=O)O)=Cc2c1c(O)c1c3c(c4n(c23)[C@H]([C@@H](C)O)CC4)C=CC1=O
3 | 1.44 µM | – | C[C@H]1OC(CC(=O)O)=Cc2c1c(O)c1c3c(c4n(c23)[C@H]([C@@H](C)O)CC4)C=CC1=O
4 | 1.48 µM | – | C[C@@H]1O[C@@H](CC(=O)O)C(=O)c2c1c(O)c1c3c(c4n(c23)[C@H]([C@@H](C)O)CC4)C=CC1=O

More lines, now with the values behind:

Row | SMILES | IC50 [1] | IC50 [2]
5 | C[C@H]1O[C@]2(C)CC(=O)O[C@]2(C)c2c1c(O)c1c3c(c4n(c23)[C@@H]([C@@H](C)O)CC4)C=CC1=O | 7.58 µM | –
6 | COC(=O)C[C@H]1Cc2c(c(O)c3c4c(c5n(c24)[C@H]([C@@H](C)O)CC5)C=CC3=O)[C@H](C)O1 | 1.2 µM | –
7 | C[C@@H](O)[C@@H]1CCc2c3c4c(c(O)c(O)c(C[C@@H](O)CC(=O)O)c4n21)C(=O)C=C3 | 4.49 µM | –
8 | C[C@H]1Oc2c(O)c3c4c(c5n(c4c2C[C@H](CC(=O)O)O1)[C@H]([C@@H](C)O)CC5)C=CC3=O | 5.04 µM | –
9 | COc1cccc2c1C(=O)c1c(O)c3c(c(O)c1C2=O)C[C@@](O)(C(=O)CO)C[C@@H]3O[C@H]1C[C@H](N)[C@H](O)[C@H](C)O1 [Adriamycin] | – | 5.75 µM
